Experimental data reported in patent publication US10106515B2, “1-(cyclopent-2-en-1-yl)-3-(2-hydroxy-3-(arylsulfonyl)phenyl)urea derivatives as CXCR2 inhibitors” (GLAXOSMITHKLINE INTELLECTUAL PROPERTY DEVELOPMENT LIMITED, priority 2014, dated 2018).

Biological target: T1, recombinant human CXCR2 (Homo sapiens, UniProt P25025)
T1 construct: TEV protease site; Gal4-VP16 transcription factor
T1 sequence (P25025 1-360): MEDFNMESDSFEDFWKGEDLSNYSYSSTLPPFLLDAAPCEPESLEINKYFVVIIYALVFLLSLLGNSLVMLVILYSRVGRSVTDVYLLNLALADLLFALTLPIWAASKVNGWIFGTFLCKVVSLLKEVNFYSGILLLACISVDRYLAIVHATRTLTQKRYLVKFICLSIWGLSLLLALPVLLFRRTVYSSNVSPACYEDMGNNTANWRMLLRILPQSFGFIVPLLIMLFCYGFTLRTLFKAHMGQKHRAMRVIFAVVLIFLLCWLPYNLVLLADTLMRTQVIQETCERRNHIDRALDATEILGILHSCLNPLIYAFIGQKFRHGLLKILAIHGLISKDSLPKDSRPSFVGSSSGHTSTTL
Assay: CXCR2 Tango assay
Type: cell-based
Settings: mean pIC50 of multiple test results; stimulated with 80 nM hCXCL1; reporter gene blue/green emission ratio; read-out: pIC50 (CXCR2 Tango assay) (converted)
Summary of the method: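 Mean pIC50 comes from sigmoidal fits of the blue/green (460/530 nm) CCF4-AM ratio, normalized between hCXCL1-stimulated and DMSO controls. Compounds in 10-point dose response were incubated overnight at 37 °C with recombinant human CXCR2 Tango cells (~10,000/well) and 80 nM hCXCL1, with reporter read-out via arrestin-TEV release of Gal4-VP16.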

- IC50: ≤ 10 nM
Structure (SMILES): CC1=CCC[C@H]1NC(=O)Nc1ccc(Cl)c(S(=O)(=O)[C@@]2(C)CCOC2)c1O [Compound 195, 1-(4-chloro-2-hydroxy-3-(((S)-3-methyltetrahydrofuran-3-yl)sulfonyl)phenyl)-3-((R)-2-methylcyclopent-2-en-1-yl)urea]
